The subject of this assay is T1, IaIAMT.
T1 construct: full-length cDNA from leaf RNA, N-terminal MBP fusion (pCold-MBP), E. coli BL21(DE3), purified on gelatinized corn starch; MBP cleavage not mentioned
Nature of the assay: radiochemical methyltransferase assay, […]-SAM, ethyl acetate extraction, scintillation counting. Type of assay: biochemical, Illicium anisatum. Particulars: co-substrate [Me-14C]-SAM; sodium phosphate pH 7.0; 25°C; 10 min; IAA 0–400 µM; MBP fusion; read-out: apparent Km.

This is an account of results in article PMC11500593, “Molecular cloning and biochemical characterization of indole-3-acetic acid methyltransferase from Japanese star anise (Illicium anisatum)” (Plant Biotechnology, 2024).

Each structure is given as a SMILES string.

What is called Km is the concentration of substrate that gives half-maximal velocity. With `O=C(O)Cc1c[nH]c2ccccc12` [IAA, indole-3-acetic acid], the Km was determined as 122 ± 32.9 µM.
